{
  "source": "patent US12016834B2",
  "about": "“Small molecule inhibitors of SLC25A1” (GEORGETOWN UNIVERSITY, priority 2017, dated 2024)",
  "key": {"H1299 cells": {"test_system": "H1299 cells", "experiment": "Sphere forming / self-renewal assay", "type": "cell-based, human", "details": "one week after treatment; BTA 2 mM, CTPI 1 mM (FIG. 9F)", "protocol": "Growth of monolayers and sphere cultures. Tumor cell lines were grown as monolayers in complete Dulbecco's Modified Eagle's Media (DMEM, Gibco; supplemented with 10% fetal bovine serum and 1% of 5,000 units/mL of penicillin-streptomycin (pen-strep), Gibco). To generate spheroids, cells were grown in Falcon bacteriological petri dishes coated with 2% poly(2-hydroxyethyl methacrylate) dissolved in 100% ethanol. The growth media was DMEM/F12 (Gibco) supplemented with 20 ng/mL of epidermal growth factor (EGF), 5 ng/mL of fibroblast growth factor, 0.375% 100× N2 supplements (Gibco), and 1% pen-strep. Monolayer cells were dissociated using 0.25% trypsin-edta (Gibco), whereas spheroid cultures were dissociated using StemPro Accutase (Gibco). Patient derived cell lines were grown as described below in the primary lung cultures section.\nSelf-renewal assays. Tumor cells cultured as spheroids were dissociated and diluted in 2× sphere media containing 1% methyl cellulose, which was previously dissolved in cold DMEM/F12 media. Either 200, 500, or 1000 cells were then plated in each 96 well and were incubated in the presence or absence of drugs, as indicated. The spheres were allowed to form for a period of a week to ten days, at which point they were counted. Six biological replicates were used for quantification of the results."}, "SLC25A1": {"target": "SLC25A1 (Homo sapiens, UniProt P53007)", "sequence (P53007 14-311, species assumed)": "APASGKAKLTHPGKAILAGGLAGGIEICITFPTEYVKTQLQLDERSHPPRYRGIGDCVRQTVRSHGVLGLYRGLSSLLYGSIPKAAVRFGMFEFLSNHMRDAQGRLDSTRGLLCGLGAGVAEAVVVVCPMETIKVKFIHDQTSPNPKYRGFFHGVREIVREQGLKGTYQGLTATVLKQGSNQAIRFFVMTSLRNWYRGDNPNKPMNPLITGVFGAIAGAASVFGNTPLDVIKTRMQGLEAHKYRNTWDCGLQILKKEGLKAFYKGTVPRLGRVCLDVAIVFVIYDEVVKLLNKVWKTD", "details": "cited from earlier work"}},
  "data": [
    {"smiles": "O=C(O)c1cccc(C(=O)O)c1C(=O)O", "note": "[BTA, 1,2,3, Benzenetricarboxylic acid]", "values": [
      {"measurement": "sphere forming capacity", "setting": "H1299 cells", "value": "reduced sphere forming capacity"},
      {"measurement": "concentration required for inhibition of SLC25A1", "setting": "SLC25A1", "value": "millimolar concentration"}
    ]}
  ]
}
